Each structure is given as a SMILES string.

This is an account of results in patent US9073851B2, “Compositions and methods for treating cancer” (Board of Regents, The University of Texas System, priority 2011, dated 2015).

Data set [1] concerns eEF-2K. Kind of data set: Western blot of MCF-7 cells treated with 5-NT. The data set is classed as cell-based, human. As for the experimental part: FIG. 5. 5-NT down-regulates critical pro-tumorigenic processes in ER(+) MCF-7 […] breast cancer cells. […] 5-NT also induces PARP cleavage and LC3-II. Methods: MCF7 cells were cultured at 37° C. in DMEM supplemented with 5% FBS in a humid incubator with 5% CO2. Following incubation with or without 5-NT cells were lysed according to standard protocols for western blotting. Blots were quantified as in FIG. 3.
FIG. 9. 5-NT down-regulates critical pro-tumorigenic processes in ER(+) MCF-7 breast cancer cells. […] 5-NT also induces PARP cleavage and LC3-II formation. Methods: MCF7 cells were cultured at 37° C. in DMEM supplemented with 5% FBS in a humid incubator with 5% CO2. Following incubation with or without 5-NT, cells were lysed according to standard protocols for western blotting. Blots were quantified as in FIG. 7.

The nature of data set [2]: Toxicity and body weight observation in mice.
The test system of data set [3] is MDA-MB-231 cells. Nature of the data set: MTS cell viability/proliferation assay. The note with it: triple negative. It counts as cell-based, human. An excerpt: Viable and dead cells were detected by the trypan blue exclusion assay, the viability and/or proliferation of cells a MTS assay was used [Akar U, et al. Autophagy 2008: 4:669-79].
Viable and dead cells were detected by the trypan blue exclusion assay, where viable cells (non-stained) with intact membrane are able to exclude the dye, while dead cells take up the coloring blue agent from the media. To quantitatively assess the viability and/or proliferation of cells a MTS assay was used, which incorporates a redox indicator that changes color in response to metabolic activity. To study cell viability in response to CaMK-III siRNA or control siRNA and plasmid encoding CaMK-III or empty plasmid transfection cells were seeded in 96-well plates at a density of 3×10^3 cells per well in 100 μl of medium. Next day the medium was removed and cells were transfected with siRNA at different concentrations in 100 μl of medium plus transfection mix. […] Plates were read at dual wavelengths (570-595 nm) in an Elisa plate reader (Kinetic Microplate Reader, Molecular Devices Corporation, Sunnyvale, Calif.).
(aka proliferation assay, in this case MTS assay was used. MTS, MTT, XTT all similar assays often used as cell viability/toxicity assay). […] Plates were read at 490 nm wavelength in an Elisa plate reader (Kinetic Microplate Reader, Molecular Devices Corporation, Sunnyvale, Calif.).

Data set [4] deals with 5-HT1B or 5-HT1D receptor. Nature of the data set: Effect on cell proliferation after siRNA knockdown of 5-HT1B or 5-HT1D receptor. It counts as cell-based.
Data set [5] has as its system MCF10A. Kind of data set: MTS cell viability assay on normal breast epithelium. It counts as cell-based, human. The note with it: at IC50 to IC90 doses in breast cancer cells (MCF7). The source says:
(§1) (aka proliferation assay, in this case MTS assay was used. MTS, MTT, XTT all similar assays often used as cell viability/toxicity assay). Cell viability in response to compounds such as 5NT and KD06 was studied with a tetrazolium/formazan based assay (MTS, Celltiter 96 aqueous one solution cell proliferation assay, Promega, WI) [Akar U, Chaves-Reyez A, Barria g Tari A, Sanguino A, Kondo Y, Kondo S, Arun B, Lopez-Berestein G, Ozpolat B: Silencing of Bcl-2 expression by small interfering RNA induces autophagic cell death in MCF-7 breast cancer cells. Autophagy 2008, 4:669-679, Ozpolat 2007 MCR]. Cells were seeded in 96 wells plates at a density of 1.5 to 3.0×10^3 cells per well in 100 μl of medium. Next day the medium was removed and cells were treated with the drug in 100 μl of medium for 72 hours. Plates were read at 490 nm wavelength in an Elisa plate reader (Kinetic Microplate Reader, Molecular Devices Corporation, Sunnyvale, Calif.).
For orientation: Formazan colour is commonly taken as a measure of viable cells.

Data set [6] has as its system MCF-7 cells. Kind of data set: Clonogenic survival assay. It counts as cell-based, human. The method, then: To study the effect of CaMK-III growth of ER(−) and ER(+) breast cancer cells we performed a clonogenic assay, which is based on the ability of a single cell to grow into a colony (Franken N A, et al. Nat Protoc 2006: 1:2315-9), using MDA-MB-231 and MCF-7 cells, respectively. Cells were transfected with either CaMK-III or control siRNA (50 nM) […] over a period of two weeks.
This assay is an in vitro cell survival assay based on the ability of a single cell to grow into a colony. Briefly, cells (500 cells/well) were transfected with control siRNA or CaMK-III siRNA every week and grown for 2 to 3 weeks. Cells were stained with crystal violet and colonies were counted. Each experiment was repeated twice.
To study the effect of 5-HT1B on the survival and colony formation of breast cancer cells a clonogenic survival assay was performed using various concentrations of […] over a period of two weeks. This assay is based on the ability of a single cell to grow into a colony [Franken N A, et al. Nat Protoc 2006: 1:2315-2319]. […] Cell death and detachment as well as reduced cell number was observed.
This assay is an in vitro cell survival assay based on the ability of a single cell to grow into a colony. […] Cells were stained with crystal violet and colonies cells were counted. […]

Data set [7] deals with 5-HT1B/1D receptor. Nature of the data set: cAMP levels. It counts as cell-based.
The test system of data set [8] is breast cancer cells. Kind of data set: Cell viability assay, breast cancer cell panel or cell line not stated. It counts as cell-based, human. The note with it: incl. MDA-468, BT20, MDa-MB231, SKBR3, MDA-MB435, T47D, ZR75.1.
Description: as §1

As for `CCCCCCCCCOc1ccc2[nH]cc(CCN)c2c1` [5-NT, 5-nonylytryptamine], the “time to down-regulation of ERK/cyclin-D, Akt/mTor, IGF1-R, Src/Fak and eEF-2K” value in data set [1] is not above 4 h. Also, in data set [2] (high dose of 50 mg/kg), the “toxicity (weight loss)” value is given as “without displaying any toxicity”. The body weight result in data set [2] (liposome incorporated, i.v., 10 mg/kg, at least 15 doses, 4 weeks) was “did not lose any weight”. In data set [3], the inhibition of proliferation result is given as “inhibits proliferation”. Besides, in data set [4], the “effect of compound after knockdown of 5-HT1B or 5-HT1D receptor” value is recorded as “blunts the effect”. Also, the “toxicity against normal breast epithelium” value in data set [5] was “not toxic”. Also, the colony formation result in data set [6] is on record as “inhibits colony formation”. Besides, in data set [7], the cAMP levels entry is listed as “decrease cAMP levels”. The “cell survival (O.D.) in a large panel of breast cancer cells” value in data set [8] was “effective against almost all breast cancer cell lines”.
